{"source": "patent US8951758B2", "about": "“GH61 glycoside hydrolase protein variants and cofactors that enhance GH61 activity” (Codexis, Inc., priority 2011, dated 2015)", "key": {"pre-treated wheat straw": {"system": "pre-treated wheat straw", "assay": "Biomass assay of a cellulase mixture (GH61a, CBH1a, CBH2b, BGL) with surfactants (FIG. 6)", "type": "biochemical", "settings": "BGL at 0.3%, 0.15%, 0.08%, 55° C., 72 hours, pH 5", "description": "This example illustrates the enhancement of overall saccharification yield with the addition of surfactants such as TWEEN®-20 and PEG-4000. Experiments were designed to monitor the enhancement in cellulase activity with different concentrations of TWEEN®-20 or PEG-4000 in the biomass assay. The biomass assay was performed in a total volume of 90 μL, including 10 mg of pre-treated wheat straw, 64.8 μL (72% by volume) of filtrate (or H2O for no filtrate conditions), and 11.6 μl, of a mixture of sodium acetate buffer (pH 5.0, supplemented with CuSO4), M. thermophila-produced cellobiohydrolase 1a (CBH1a), cellobiohydrolase 2b (CBH2b), beta-glucosidase (BGL), and glycoside hydrolase type 61 (GH61a). The final concentration of sodium acetate was 128 mM (with 30 μM CuSO4) and the enzyme loads of CBH1a, CBH2b, BGL and GH61a were 0.15%, 0.15%, 0.08% and 0.3% with respect to the substrate glucan mass in the biomass substrate, respectively. Water was used in place of the enzymes as a negative control. […]\nData shown are total glucose produced by a mixture of GH61a, CBH1a, CBH2b, and BGL at 0.3%, 0.15%, 0.15%, and 0.08% with respect to the substrate glucan mass in the biomass substrate, respectively. In this Figure, TWEEN®-20 concentrations are expressed as % total reaction volume.\nIn this Figure, PEG-4000 concentrations are expressed as % total reaction volume."}, "[1]": {"system": "M. thermophila CF-416 whole broth cellulases", "settings": "87g/kg glucan, 0.81% enzyme load, pH 5.0, 55° C., 50 μM CuSO4, 72 hours"}, "[2]": {"system": "AVICEL® PH microcrystalline cellulose", "assay": "GH61a Variant 1 plus beta-glucosidase with reducing agents or pretreatment filtrate on AVICEL (FIG. 5A)", "type": "biochemical", "settings": "0.3% GH61a Variant 1, 0.08% BGL, 30 μM CuSO4, 48 h, pH 5, 55° C.", "description": "(§1) This Example provides experiments conducted to determine the effect of adding reducing agents (e.g., gallic acid and ascorbic acid) to saccharification reactions. In these experiments, enhancement of GH61 activity was tested using Variant 1 (SEQ ID NO:5) in the presence of reducing agents (specifically, ascorbic acid or gallic acid) and pretreatment filtrate, which contains various reducing agents from lignin degradation. Reactions were performed on cellulosic substrates, AVICEL® PH microcrystalline cellulose and phosphoric acid swollen cellulose (PASC), with purified M. thermophila-produced GH61 Variant 1 and beta-glucosidase at 0.3% and 0.08% respectively, with respect to substrate glucan mass, and 128 mM sodium acetate buffer (pH 5) supplemented with 30 μM CuSO4. Thus, reactions were performed with 0.3% GH61a and 0.08% BGL, where % enzyme loads are with respect to substrate glucan mass (36 g/L AVICEL® cellulose and 5 g/L PASC). Background (negative) controls were beta-glucosidase-only reactions tested in the absence of GH61a. Glucose production after 48 h incubation at pH 5, 55° C. was determined by glucose oxidase/peroxidase-based or HPLC-based glucose assay glucose assay, using methods known in the art. […] Filtrate dilutions are indicated in this Figure, where undiluted filtrate equals 72% of the total reaction volume. […]"}, "[3]": {"system": "phosphoric acid swollen cellulose (PASC)", "assay": "GH61a Variant 1 plus beta-glucosidase with reducing agents or pretreatment filtrate on PASC (FIG. 5B)", "type": "biochemical", "settings": "0.3% GH61a Variant 1, 0.08% BGL, 30 μM CuSO4, 48 h, pH 5, 55° C.", "description": "as §1"}}}
{"compound": "TWEEN®-20", "values": [{"measurement": "total glucose production in the saccharification reaction", "setting": "pre-treated wheat straw", "value": "enhanced"}]}
{"compound": "O=O", "note": "[oxygen]", "values": [{"measurement": "glucose yields, closed flask vs flask opened at 4 hrs and 24 hrs for fresh air", "setting": "[1]", "value": "not a limiting factor"}]}
{"compound": "O=C(O)c1cc(O)c(O)c(O)c1", "note": "[gallic acid]", "values": [{"measurement": "GH61 activity in generating soluble sugars from AVICEL® cellulose", "setting": "[2]", "value": "improved"}, {"measurement": "GH61 activity in generating soluble sugars from PASC", "setting": "[3]", "value": "improved"}]}
